The results in this text go back to ChEMBL document CHEMBL3407414, “Discovery of AZD3147: a potent, selective dual inhibitor of mTORC1 and mTORC2” (J Med Chem, 2015).

Data set [1] is described as follows: Lipophilicity, log D of the compound. Format: physicochemical. Particulars: octanol/water.
For data set [2], the system named is human MDR1. Put plainly: Apparent permeability from apical to basolateral side of MDCK2 cells expressing human MDR1 at 10 uM. Format: ADME, cell-based, Canis lupus familiaris, MDCK-II. Particulars: dog, MDCK-MDR1.
Data set [3] deals with human MDR1. In words: Apparent permeability from basolateral to apical side of MDCK2 cells expressing human MDR1 at 10 uM. Format: ADME, cell-based, Canis lupus familiaris, MDCK-II. The note with it: dog, MDCK-MDR1.
Data set [4] is described as follows: Half life in Beagle dog. Format: ADME, organism-based, Canis lupus familiaris. Particulars: in vivo.
Data set [5] in a line: Oral bioavailability in Beagle dog at 3 to 10 umol/kg. Format: ADME, organism-based, Canis lupus familiaris. The note with it: in vivo.
Data set [6] is described as follows: Clearance in Beagle dog at 1 to 3 umol/kg, iv. The note with it: in vivo. It counts as ADME, organism-based, Canis lupus familiaris.
Data set [7] in a line: Volume of distribution at steady state in Beagle dog. The note with it: in vivo, read-out: Vdss. It counts as ADME, organism-based, Canis lupus familiaris.
The nature of data set [8]: Half life in CD-1 mouse. It counts as ADME, organism-based. Particulars: in vivo.
Data set [9] can be described thus: Oral bioavailability in CD-1 mouse at 5 to 20 umol/kg. Particulars: in vivo. It counts as ADME, organism-based.
Data set [10] can be described thus: Clearance in CD-1 mouse at 2.5 to 10 umol/kg, iv. Format: ADME, organism-based. Particulars: in vivo.
A short description of data set [11]: Volume of distribution at steady state in CD-1 mouse. It counts as ADME, organism-based. The note with it: in vivo, read-out: Vdss.
Data set [12] is described as follows: Intrinsic clearance in human hepatocytes assessed per million cells. It counts as ADME, cell-based, Hepatocyte. The note with it: read-out: CLH.

In general, logD refers to the decadic logarithm of the distribution of all forms, ionised or not, between an organic phase and buffer at a given pH. Higher therefore signals a more lipophilic compound. Turning to `C[C@H]1COCCN1c1cc(CS(C)(=O)=O)nc(-c2ccc(NC(=O)Nc3cnn(C)c3)cc2)n1`, the pH-dependent lipophilicity (logD) in [1] was found to be 1.85.

In data set [1], `C[C@H]1COCCN1c1cc(CS(C)(=O)=O)nc(-c2ccc(NC(=O)NCCO)cc2)n1` had a logD of 1.

In data set [1], `C[C@H]1COCCN1c1cc(CS(C)(=O)=O)nc(-c2ccc(NC(=O)NCCN(C)C)cc2)n1` registered a log distribution coefficient (logD) of 0.3.

In data set [1], `C[C@H]1COCCN1c1cc(C2(S(=O)(=O)CCCO)CC2)nc(-c2ccc(NC(=O)NC3CC3)cc2)n1` returned a logD of 2.4.

`C[C@H]1COCCN1c1cc(CS(C)(=O)=O)nc(-c2ccc(NC(=O)Nc3ccc(F)cc3)cc2)n1` came in with a pH-dependent lipophilicity (logD) in [1] of 3.8.

As usually defined, the Papp A→B is how fast a substance crosses the layer from the apical side. What is called Papp B→A is how fast a substance crosses the layer from the basolateral side. As for `C[C@H]1COCCN1c1cc(C2(S(=O)(=O)CCCO)CC2)nc(-c2ccc(NC(=S)NC3CC3)cc2)n1`, in data set [2], the Papp A→B at 10 µM is 0.18 ×10⁻⁶ cm/s. In addition, in [3], the Papp B→A at 10 µM worked out at 22 ×10⁻⁶ cm/s. The same compound came in with a logD in data set [1] of 2.2.

For orientation: half-life means how long it takes for the measured level to halve. A word on the bioavailability: it is the share of a dose that reaches the circulation, judged against a reference dose that is usually intravenous. Read a high bioavailability as good availability. In general, clearance refers to the volume of plasma or blood freed of the substance per unit of time. Lower therefore signals a low capacity for elimination. On to `C[C@H]1COCCN1c1cc(C2(S(=O)(=O)C3CC3)CC2)nc(-c2ccc(NC(=S)NCCO)cc2)n1`, for which the half-life in data set [4] was 114 min; in data set [8], 54 min. Also, the apparent permeability from apical to basolateral (Papp A→B) at 10 µM in data set [2] came to 5.6 ×10⁻⁶ cm/s. Moreover, the bioavailability in [5] amounted to 73%; in [9], 61%. For the same compound, the results for the clearance in data set [6] and in data set [10] were 16 mL/min/kg and 8 mL/min/kg, respectively. Also, the Vd in data set [7] came out at 2 L/kg; in data set [11], 2.3 L/kg. Also, the Papp B→A at 10 µM in data set [3] is 43 ×10⁻⁶ cm/s. The compound further had a logD in data set [1] of 2.1.

Consider `CS(=O)(=O)Cc1cc(N2CCOCC2)nc(-c2ccc(NC(=O)Nc3ccc(F)cc3)cc2)n1`, for which, in data set [1], the logD is above 3.2.

In the case of `C[C@H]1COCCN1c1cc(CS(C)(=O)=O)nc(-c2ccc(NC(=O)NC3CC3)cc2)n1`, the pH-dependent lipophilicity (logD) in data set [1] was determined as 1.9.

Take `C[C@H]1COCCN1c1cc(C2(S(C)(=O)=O)CC2)nc(-c2ccc(NC(=S)NCCO)cc2)n1`: the Papp A→B at 10 µM in data set [2] was 0.07 ×10⁻⁶ cm/s. In addition, the Papp B→A at 10 µM in data set [3] is 17 ×10⁻⁶ cm/s. In [1], the pH-dependent lipophilicity (logD) turned out to be 1.78.

In the case of `CNC(=O)Nc1ccc(-c2nc(CS(=O)(=O)c3ccccc3)cc(N3CCOC[C@@H]3C)n2)cc1`, the logD in data set [1] came to 2.65.

Take `CC(C)NC(=O)Nc1ccc(-c2nc(CS(C)(=O)=O)cc(N3CCOC[C@@H]3C)n2)cc1`: in [1], the log distribution coefficient (logD) came to 2.45.

In data set [1], `C[C@H]1COCCN1c1cc(C2(S(=O)(=O)CCCO)CC2)nc(-c2ccc(NC(=S)NCCO)cc2)n1` displayed a logD of 1.6.

In data set [1], `CNC(=O)Nc1ccc(-c2nc(CS(=O)(=O)C3CC3)cc(N3CCOC[C@@H]3C)n2)cc1` had a logD of 2.

As to `C[C@H]1COCCN1c1cc(C(C)(C)S(C)(=O)=O)nc(-c2ccc(NC(=S)NCCO)cc2)n1`, the log distribution coefficient (logD) in data set [1] worked out at 2.15.

As for `C[C@H]1COCCN1c1cc(C(C)(C)S(C)(=O)=O)nc(-c2ccc(NC(=O)NC3CC3)cc2)n1`, in data set [12], the hepatocyte CLint came out at 50 µL/min/1e6 cells. The same compound gave a pH-dependent lipophilicity (logD) in data set [1] of 2.62.

For the compound `C[C@H]1COCCN1c1cc(C2(S(C)(=O)=O)CCC2)nc(-c2ccc(NC(=O)NCCO)cc2)n1`, the log distribution coefficient (logD) in data set [1] was determined as 2.4.

Compound `C[C@H]1COCCN1c1cc(CS(C)(=O)=O)nc(-c2ccc(NC(=S)NC3CC3)cc2)n1` registered a logD in data set [1] of 1.74.

Turning to `C[C@H]1COCCN1c1cc(C2(S(=O)(=O)C3CC3)CC2)nc(-c2ccc(NC(=O)NC3CC3)cc2)n1`, in data set [1], the pH-dependent lipophilicity (logD) worked out at 2.94.

`CNC(=O)Nc1ccc(-c2nc(N3CCOC[C@@H]3C)cc(C3(S(=O)(=O)c4ccncc4)CC3)n2)cc1` showed a logD in data set [1] of 2.5.

The compound `C[C@H]1COCCN1c1cc(C2(S(C)(=O)=O)CCOCC2)nc(-c2ccc(NC(=O)NC3CC3)cc2)n1` showed a pH-dependent lipophilicity (logD) in data set [1] of 2.8.

For the compound `C[C@H]1COCCN1c1cc(C2(S(C)(=O)=O)CC2)nc(-c2ccc(NC(=O)NC3CC3)cc2)n1`, the hepatocyte CLint in data set [12] came out at 37.8 µL/min/1e6 cells. In addition, the logD in data set [1] came out at 2.62.

Take `CNC(=O)Nc1ccc(-c2nc(CS(C)(=O)=O)cc(N3CCOC[C@@H]3C)n2)cc1OC`: the pH-dependent lipophilicity (logD) in data set [1] amounted to 1.79.

Regarding `CNC(=O)Nc1ccc(-c2nc(CS(=O)(=O)C3CCCCC3)cc(N3CCOC[C@@H]3C)n2)cc1`, the logD in data set [1] was determined as 3.6.

`C[C@H]1COCCN1c1cc(C2(S(=O)(=O)C3CC3)CC2)nc(-c2ccc(NC(=O)NCCO)cc2)n1` showed a log distribution coefficient (logD) in data set [1] of 2.1.

On to `C[C@H]1COCCN1c1cc(C2(S(=O)(=O)c3ccccc3)CC2)nc(-c2ccc(NC(=O)NCCCO)cc2)n1`, for which the apical-to-basolateral permeability (Papp A→B) at 10 µM in data set [2] was 0.15 ×10⁻⁶ cm/s. In addition, the Papp B→A at 10 µM in data set [3] was found to be 31 ×10⁻⁶ cm/s. The compound further came in with a logD in [1] of 2.85.

In data set [1], `C[C@H]1COCCN1c1cc(CS(C)(=O)=O)nc(-c2ccc(NC(=O)Nc3ccccc3)cc2)n1` registered a logD of 3.3.

For `C[C@H]1COCCN1c1cc(C2(S(C)(=O)=O)CCCC2)nc(-c2ccc(NC(=O)NC3CC3)cc2)n1`, the pH-dependent lipophilicity (logD) in [1] was above 3.4.

`C[C@H]1COCCN1c1cc(C2(S(=O)(=O)c3ccccc3)CC2)nc(-c2ccc(NC(=O)NCCO)cc2)n1`: in data set [2], the apparent permeability from apical to basolateral (Papp A→B) at 10 µM worked out at 0.18 ×10⁻⁶ cm/s. In addition, in data set [3], the Papp B→A at 10 µM came out at 24 ×10⁻⁶ cm/s. The compound further registered a pH-dependent lipophilicity (logD) in data set [1] of 2.8.

As for `CCNC(=O)Nc1ccc(-c2nc(CS(C)(=O)=O)cc(N3CCOC[C@@H]3C)n2)cc1`, the logD in data set [1] came to 1.93.

For `CNC(=O)Nc1ccc(-c2nc(N3CCOC[C@@H]3C)cc(C(C)(C)S(C)(=O)=O)n2)cc1`, in data set [12], the hepatocyte CLint is 36.3 µL/min/1e6 cells.

`CNC(=O)Nc1ccc(-c2nc(CS(C)(=O)=O)cc(N3CCOC[C@@H]3C)n2)cc1`: the log distribution coefficient (logD) in data set [1] came to 1.54.

Take `C[C@H]1COCCN1c1cc(CS(=O)(=O)CCCO)nc(-c2ccc(NC(=O)NC3CC3)cc2)n1`: in data set [1], the logD turned out to be 1.7. The logD values of the last two compounds are within 0.2 log units of each other.

On to `CNC(=O)c1cccc(-c2ccc3c(N4CCOC[C@@H]4C)nc(N4CCOC[C@@H]4C)nc3n2)c1` [VISTUSERTIB], for which the hepatocyte CLint in [12] was below 4.2 µL/min/1e6 cells.

In the case of `C[C@H]1COCCN1c1cc(C2(S(C)(=O)=O)CCC2)nc(-c2ccc(NC(=O)NC3CC3)cc2)n1`, in [1], the logD is 3.3.

For the compound `CNC(=O)Nc1ccc(-c2nc(CS(C)(=O)=O)cc(N3CCOC[C@@H]3C)n2)cc1C`, the logD in data set [1] worked out at 1.5.

`COc1ccc(NC(=O)Nc2ccc(-c3nc(CS(C)(=O)=O)cc(N4CCOC[C@@H]4C)n3)cc2)cc1`: the pH-dependent lipophilicity (logD) in data set [1] was 2.88.

In [1], `COc1ccc(CNC(=O)Nc2ccc(-c3nc(CS(C)(=O)=O)cc(N4CCOC[C@@H]4C)n3)cc2)cc1` yielded a logD of 2.8.

In data set [1], `CNC(=O)Nc1ccc(-c2nc(CS(=O)(=O)c3ccncc3)cc(N3CCOC[C@@H]3C)n2)cc1` yielded a pH-dependent lipophilicity (logD) of 2.1.

As to `C[C@H]1COCCN1c1cc(C2(S(=O)(=O)c3ccc(F)cc3)CC2)nc(-c2ccc(NC(=O)NCCO)cc2)n1`, the log distribution coefficient (logD) in data set [1] is 3.01.
